According to article PMC9947563, “Identification of the molecular determinants of antagonist potency in the allosteric binding pocket of human P2X4” (Frontiers in Pharmacology, 2023):
Numbering of substitutions follows the chain as printed.

How the values were obtained:
zebrafish P2X4 = system: zebrafish P2X4; parameters: method as in Ase et al. (2015); settings: ref Ase et al. (2015); cited from earlier work
[1] = biological target: T1, rat P2X4 T312I (r4-T312I) (Rattus norvegicus, UniProt P51577, T312I); test: ATP-induced calcium influx (Fluo-4) in 1321N1 cells stably expressing rat P2X4 T312I; type: cell-based
T1 construct: expressed in transfected cells; host or cells: 1321N1 astrocytoma cells, stably transfected
T1 sequence (P51577 1-388 T312I): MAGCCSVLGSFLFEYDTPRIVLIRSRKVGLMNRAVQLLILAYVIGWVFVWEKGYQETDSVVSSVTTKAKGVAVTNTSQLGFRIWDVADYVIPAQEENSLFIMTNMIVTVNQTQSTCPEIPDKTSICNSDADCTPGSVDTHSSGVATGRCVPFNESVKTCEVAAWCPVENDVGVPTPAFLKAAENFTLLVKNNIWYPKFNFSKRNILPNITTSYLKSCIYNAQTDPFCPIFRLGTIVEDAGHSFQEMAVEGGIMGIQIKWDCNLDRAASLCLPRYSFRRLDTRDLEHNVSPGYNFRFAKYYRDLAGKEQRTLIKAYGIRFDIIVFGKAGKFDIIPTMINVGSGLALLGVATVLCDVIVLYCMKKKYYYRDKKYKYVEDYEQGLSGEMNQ
From the text: Plasmid encoding rat P2X4 (r4-WT) ([Royle et al., 2005]) was a kind gift from Ruth Murrell-Lagnado, whilst that encoding human P2X4 with a C-terminal (His)10 tag has been reported previously ([Young et al., 2008]). Plasmids containing rat P2X4 T312I (r4-T312I) and human P2X4 I312T mutants (h4-I312T) were generated using the QuikChange Lightning site-directed mutagenesis kit (Agilent) according to manufacturer’s instructions. Sequencing of the constructs and of the genomic DNA from stably transfected cells confirmed correct full coding sequences.
(§1) 1321N1 astrocytoma cells were cultured (at 37°C, 5% CO2) in Dulbecco’s modified Eagle’s medium (DMEM/F-12 with Glutamax) supplemented with 10% foetal bovine serum (FBS) and 200 unit/mL of penicillin and streptomycin antibiotics (Fisher Scientific). Stably transfected clones were grown in DMEM/F-12 with Glutamax medium supplemented with G-418 (Geneticin®, Fisher Scientific), 600 μg/mL and 150 μg/mL during selection and maintenance, respectively. FuGene HD Transfection Reagent (Promega) was used according to the manufacturer’s protocol for the generation of stable cell line expressing h4-WT, r4-WT, h4-I312T, and r4-T312I. Each cell line was then tested for P2X4 receptor expression by Western blot and for functionality using the Ca^2+ influx assay.
(§2) Cells were plated the day before assay into poly-lysine-coated 96-well plates at 40–55,000 cells/mL. To load cells with calcium-sensitive fluorescent dye, culture medium was replaced with modified Ringer’s buffer (140 mM NaCl, 10 mM HEPES, 10 mM Glucose, 1 mM MgCl2, 1 mM CaCl2, 2.5 mM KCl, 0.5% BSA, pH = 7.4) containing 2.6 μM FLUO4-AM (Fisher Scientific) and 250 μM probenecid (Sigma), and cells were incubated for 20–30 min. Prior to assay, buffer was replaced with fresh modified Ringer’s buffer containing probenecid but not the dye. […] A Fluoroskan Ascent FL plate reader (Fisher Scientific) equipped with a solution dispenser and an appropriate filter pair (excitation: 485 nm, emission: 538 nm) was used to record 5-s baseline followed by P2X4-mediated calcium influx measurements for 20–25 s after ATP stimulation (final concentration ranging between 0.03 and 100 μM in buffered solution, pH = 7.4). The collected responses were normalized to the first data-point recorded after ATP injection.
(§3) Data processing and data analysis were carried out using Graphpad Prism version 6 for Mac. Figures are presented as Mean ± SEM. Statistical significance of any difference observed between samples was calculated through one-way ANOVA followed by Dunnett’s multiple comparisons test with a single pooled variance (control, unless otherwise specified) or, when comparing only two sets of data, using an unpaired t-test with Welch’s correction. When comparing data obtained from multiple independent experiments (N), each dataset was normalized to the mean value obtained for the vehicle control.

rP2X4 = settings: ref Ase et al. (2015); cited from earlier work
[2] = biological target: T2, rat P2X4 wild type (r4-WT) (Rattus norvegicus, UniProt P51577); test: ATP-induced calcium influx (Fluo-4) in 1321N1 cells stably expressing rat P2X4 wild type; type: cell-based
T2 construct: expressed in transfected cells; host or cells: 1321N1 astrocytoma cells, stably transfected
T2 sequence (P51577 1-388): T1 sequence (P51577 1-388 T312I) with I312T
Experimental: as §1, §2, §3

Which IC50 (zebrafish P2X4) does the source give for `CC(C)c1cc(Br)c(NC(=O)Nc2cccnc2)c(Br)c1` [BX430] here?
Its IC50 is 1.89 µM.

And the IC50 [1]?
The IC50 was 1.39 µM.

And the “increase in BX430 potency by T312I mutation in rat P2X4” value ([1]; rat P2X4 T312I vs rat P2X4 WT)?
Its value is “approx. 47 fold”.

What about the “Hill coefficient (BX-430 inhibition curve)” value ([1]; rat P2X4 T312I, 1 µM ATP) of the same molecule?
Its value is 2.475.

What about the IC50 (rP2X4) of the same molecule?
The IC50 was greater than 10 µM.

What about the IC50 [2] of the same molecule?
Its IC50 is 66.1 µM.

And the “Hill coefficient (BX-430 inhibition curve)” value ([2]; rat P2X4 WT, 1 µM ATP)?
Its value is 1.441.
